Results as given in US20050050594A1, “Tryptophan synthase as a site of herbicide action” (priority 1999, published 2005).
Where a name gives a salt, the structure may show the parent alone. Read-outs that look alike come from different tables or passages of the source.

How the values were obtained:
Arabidopsis thaliana = assay: Herbicidal activity and tryptophan reversal on Arabidopsis grown on agar medium; type: in vivo; set-up: key: 0 - no effect; 9 - total kill; C - chlorotic seedlings 4-6 days after treatment
Method: In this experiment, TS inhibitors were tested on Arabidopsis thaliana grown Murashige minimal organics medium, (obtained from Life Technologies, Grand Island, N.Y.), containing 0.7% agar. Compounds were tested at different concentrations to assess their herbicidal activity.

[1] = molecular target: T1, Salmonella typhimurium tryptophan synthase holoenzyme (α2β2), TSα reaction (Salmonella typhimurium, UniProt P00929); assay: Inhibition of tryptophan synthase by the TSα reaction, microtiter kinetic coupled enzyme assay; type: biochemical
T1 construct: made in house; host or cells: E. coli strain CB149pSTB7
T1 sequence (P00929 whole entry): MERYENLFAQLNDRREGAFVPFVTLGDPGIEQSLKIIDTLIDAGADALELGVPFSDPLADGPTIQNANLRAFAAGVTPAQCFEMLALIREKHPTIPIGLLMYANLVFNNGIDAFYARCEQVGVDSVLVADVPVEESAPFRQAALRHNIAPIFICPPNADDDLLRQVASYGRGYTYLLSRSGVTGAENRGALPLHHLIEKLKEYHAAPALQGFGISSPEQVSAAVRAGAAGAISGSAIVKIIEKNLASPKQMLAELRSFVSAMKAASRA
T1 sequence (P0A2K1 2-397, further chain): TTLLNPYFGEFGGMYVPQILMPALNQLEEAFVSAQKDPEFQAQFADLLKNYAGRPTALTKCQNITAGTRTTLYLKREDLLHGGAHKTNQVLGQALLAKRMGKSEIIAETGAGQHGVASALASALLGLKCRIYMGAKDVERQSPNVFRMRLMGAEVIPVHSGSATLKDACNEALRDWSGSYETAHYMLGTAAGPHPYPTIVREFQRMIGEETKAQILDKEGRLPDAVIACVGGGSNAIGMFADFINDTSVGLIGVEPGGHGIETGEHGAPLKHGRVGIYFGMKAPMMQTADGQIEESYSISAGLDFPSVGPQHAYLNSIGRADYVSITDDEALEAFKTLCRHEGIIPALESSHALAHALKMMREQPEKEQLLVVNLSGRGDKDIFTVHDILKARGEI
Source text: Inhibitors of TS were identified by their ability to inhibit the production of glyceraldehyde-3-P by the TSα reaction of the Salmonella typhimurium holoenzyme (α2β2) in the presence of a limiting amount of indole-3-glycerolphosphate and an excess of serine
The assay was developed as a new microtiter plate kinetic enzyme assay based on the combined methods of Creighton (EurJBch 13:1-10, 1970) and Creighton and Yanofsky (JBC 241:980, 1966) with modifications. The rate of glyceraldehyde production was measured as the linear […] (spectrophotometric absorbance at 340 nm) in the presence of glyceraldehyde-3-phosphate dehydrogenase in a coupled enzyme assay.
The assay solution contained a test inhibitor compound, 50 mM Tris-Cl (pH 7.8), 6 mM sodium arsenate, 5 μg/ml pyridoxal phosphate, 0.5 mM DTT, 0.18M NaCl, 60 mM serine, 1.6 mM NAD+, 8 e.u./ml yeast glyceraldehyde-3-phosphate dehydrogenase (Sigma, Catalog #G2647; Kirschner et al., Eur J Bch, 1975, 60:513 and approximately 1.5 e.u. Salmonella TS. 100 μM IGP was added to start the reaction, which was run at 37° C. and using 300 μl per assay in a microtiter plate.
The substrate IGP was used at 1.5 to 2 times its Km concentration to enhance the likelihood of identifying weak inhibitors, binding at the substrate binding site. This approach to identifying enzyme inhibitors was novel, since an excess of all substrates, (at least 5-times the Km value of each), is conventionally used in the measurement of enzyme activity.
Potential inhibitors were evaluated by adding 100 μM inhibitor (equimolar to substrate IGP):or less, in a 1:1 dilution series down from 100 μM, until the inhibition measured was less than 15%. Reaction rates at Vmax were compared in the presence and absence of inhibitors.
In addition, some weaker inhibitors were identified following preincubation of the inhibitor with the TS assay mix for 24 hrs prior to the addition of IGP. The identifying weaker inhibitors is to aid in a quantitative structure activity relationship (QSAR) evaluation, or to identify new herbicidal inhibitor leads. The previously known inhibitor IPP was used as a standard in all tests, where the I50 for IPP was 1-2 uM.

Arabidopsis TS enzyme = molecular target: T2, Arabidopsis TS enzyme (Arabidopsis thaliana, UniProt Q42529); assay: TSα assay with recombinant plant TSα and TSβ expressed in E. coli; type: biochemical; settings: inhibitor 82 uM; pAC 758 (1.5 ug) + pAC 755 (3 ug)
T2 construct: GST (N, cleaved yes); made in house; host or cells: E. coli DH5α (pGEX-2T constructs)
T2 sequence (Q42529 with tags, fused parts or gaps): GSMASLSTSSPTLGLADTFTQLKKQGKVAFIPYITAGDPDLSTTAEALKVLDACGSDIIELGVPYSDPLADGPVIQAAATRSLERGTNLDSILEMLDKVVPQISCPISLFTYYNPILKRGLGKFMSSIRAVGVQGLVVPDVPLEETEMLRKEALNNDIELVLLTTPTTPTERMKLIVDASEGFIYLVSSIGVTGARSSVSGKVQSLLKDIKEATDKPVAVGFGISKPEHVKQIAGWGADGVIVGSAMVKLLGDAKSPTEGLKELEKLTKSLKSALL
T2 sequence (P14671 with tags, fused parts or gaps partner): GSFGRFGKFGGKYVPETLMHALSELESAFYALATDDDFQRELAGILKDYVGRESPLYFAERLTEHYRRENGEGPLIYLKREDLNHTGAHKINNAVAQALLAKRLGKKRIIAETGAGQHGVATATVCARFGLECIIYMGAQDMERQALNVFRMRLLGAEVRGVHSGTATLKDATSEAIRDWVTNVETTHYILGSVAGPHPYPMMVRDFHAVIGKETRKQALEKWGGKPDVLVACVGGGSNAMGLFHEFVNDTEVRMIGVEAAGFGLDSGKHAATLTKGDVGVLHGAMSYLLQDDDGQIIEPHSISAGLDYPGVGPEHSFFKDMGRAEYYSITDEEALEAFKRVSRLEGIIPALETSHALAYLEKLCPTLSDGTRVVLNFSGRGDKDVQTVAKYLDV
Method: The plant TS proteins were expressed as fusion proteins with glutathione transferase (GST) to facilitate purification. After purification, the GST protein was cleaved off with thrombin as described above before the plant TS assays were performed. After thrombin cleavage, both TSα and TSβ-subunit proteins retained a Gly-Ser residue on the N-terminal of the protein in addition to the TS sequence. […]
The TSα enzyme assay was conducted as described in Example 3 for Salmonella TSα.
Specifically, phenylthiophosphonic acid compounds were used. The TSα assay conditions were as described for Salmonella TSα in Example 3 except that recombinant plant proteins were used instead of the Salmonella enzyme.

[2] = TSα reaction, Salmonella holoenzyme, 30 min at 37° C., 100 μM IGP, read-out: TS inhibition I50

## NC1CCCCC1.NC1CCCCC1.O=P(O)(O)CCCC[S+]([O-])c1ccccc1O (stereo not drawn) [Phosphonic acid, {4-[(o-hydroxyphenyl)sulfinyl]butyl}-, with cyclohexylamine (1:2)]
Arabidopsis thaliana; herbicide 7.8 mM + 100 μM Trp
  herbicidal rating: 0
Arabidopsis thaliana; herbicide 7.8 mM, no Trp
  herbicidal rating: 5
Arabidopsis thaliana; herbicide 16 mM + 100 μM Trp
  herbicidal rating: 0
Arabidopsis thaliana; herbicide 16 mM, no Trp
  herbicidal rating: 6
Arabidopsis thaliana; herbicide 31 mM + 100 μM Trp
  herbicidal rating: 3
Arabidopsis thaliana; herbicide 31 mM, no Trp
  herbicidal rating: 6
Arabidopsis thaliana; herbicide 63 mM + 100 μM Trp
  herbicidal rating: 5
Arabidopsis thaliana; herbicide 63 mM, no Trp
  herbicidal rating: 6
Arabidopsis thaliana; herbicide 125 mM + 100 μM Trp
  herbicidal rating: 5
Arabidopsis thaliana; herbicide 125 mM, no Trp
  herbicidal rating: 6
Arabidopsis thaliana; herbicide 250 mM + 100 μM Trp
  herbicidal rating: 5
Arabidopsis thaliana; herbicide 250 mM, no Trp
  herbicidal rating: 7Y
Arabidopsis thaliana; herbicide 500 mM + 100 μM Trp
  herbicidal rating: 5
Arabidopsis thaliana; herbicide 500 mM, no Trp
  herbicidal rating: 7Y
Arabidopsis thaliana; herbicide 1000 mM + 100 μM Trp
  herbicidal rating: 5
Arabidopsis thaliana; herbicide 1000 mM, no Trp
  herbicidal rating: 8

## Nc1cc(C(F)(F)F)ccc1SCCCCP(=O)(O)O [Phosphonic acid, {4-[(2-amino-alpha,alpha,alpha-trifluoro-p-tolyl)thio]butyl}-]
[1]; [2]
  IC50: 7000 nM

## Nc1ccccc1SCCCCP(=O)(O)O [Phosphonic acid, {4-[(o-aminophenyl)thio]butyl}-, dilithium salt]
[1]; [2]
  IC50: 400 nM

## Nc1ccccc1SCC=CCP(=O)(O)O [Phosphonic acid, {4-[(o-aminophenyl)thio]-2-butenyl}-]
[1]; [2]
  IC50: 250 nM
[1]; inhibitor 100 nM
  Enzyme activity, % of control: 70.7 % of control
[1]; inhibitor 300 nM
  Enzyme activity, % of control: 43.4 % of control
[1]; inhibitor 1000 nM
  Enzyme activity, % of control: 25.3 % of control
[1]; inhibitor 3000 nM
  Enzyme activity, % of control: 13.8 % of control
[1]; inhibitor 10000 nM
  Enzyme activity, % of control: 4.5 % of control

## O=P(O)(O)CCCCS(=O)(=O)c1ccccc1O [Compound 33, Phosphonic acid, {4-[(o-hydroxyphenyl)sulfonyl]butyl}-]
Arabidopsis TS enzyme
  TSα activity, % of control: 2.4 % of control
  TSα activity, relative Vmax: 0.150 mOD/min
[1]; I50 TS, TSα reaction of Salmonella holoenzyme
  IC50: 360 nM

## Nc1cccnc1SCCCCP(=O)(O)O [Phosphonic acid, {4-[3-amino-2-phridyl)thio]butyl}-]
[1]; [2]
  IC50: 5000 nM

## O=P(O)(O)CC=CCSc1ccccc1O [Phosphonic acid, {4-[(o-hydroxyphenyl)thio]-2-butenyl}-]
Arabidopsis TS enzyme
  TSα activity, % of control: 14.7 % of control
  TSα activity, relative Vmax: 0.909 mOD/min

## CCOP(=O)(CCCCSc1cc(Cl)ccc1N)OCC [Phosphonic acid, {4-[(2-amino-5-chlorophenyl)thio]butyl}-, diethyl ester]
Arabidopsis thaliana; herbicide 16 μM
  herbicidal injury rating: 0
Arabidopsis thaliana; herbicide 31 μM
  herbicidal injury rating: 1
Arabidopsis thaliana; herbicide 63 μM
  herbicidal injury rating: 1
Arabidopsis thaliana; herbicide 125 μM
  herbicidal injury rating: 3
Arabidopsis thaliana; herbicide 250 μM
  herbicidal injury rating: 5
Arabidopsis thaliana; herbicide 500 μM
  herbicidal injury rating: 6
Arabidopsis thaliana; herbicide 1000 μM
  herbicidal injury rating: 7

## CP(=O)(O)CCCCSc1ccccc1N [Phosphinic acid, {4-[(o-aminophenyl)thio]butyl}methyl-]
[1]; [2]
  IC50: 100000 nM

## CCOP(=O)(CCCCSc1ccccc1O)OCC [Phosphonic acid, {4-[(o-hydroxyphenyl)thio]butyl}-, diethyl ester]
Arabidopsis thaliana; herbicide 7.8 μM
  herbicidal injury rating: 0
Arabidopsis thaliana; herbicide 16 μM
  herbicidal injury rating: 1
Arabidopsis thaliana; herbicide 31 μM
  herbicidal injury rating: 3
Arabidopsis thaliana; herbicide 63 μM
  herbicidal injury rating: 5
Arabidopsis thaliana; herbicide 125 μM
  herbicidal injury rating: 6
Arabidopsis thaliana; herbicide 250 μM
  herbicidal injury rating: 7
Arabidopsis thaliana; herbicide 500 μM
  herbicidal injury rating: 8
Arabidopsis thaliana; herbicide 1000 μM
  herbicidal injury rating: 9

## CCOP(=O)(CCCCSc1cc(Br)ccc1N)OCC [Phosphonic acid, {4-[2-amino-5-bromophenyl)thio]butyl}-, diethyl ester]
Arabidopsis thaliana; herbicide 7.8 μM
  herbicidal injury rating: 1
Arabidopsis thaliana; herbicide 16 μM
  herbicidal injury rating: 1
Arabidopsis thaliana; herbicide 31 μM
  herbicidal injury rating: 1
Arabidopsis thaliana; herbicide 63 μM
  herbicidal injury rating: 1
Arabidopsis thaliana; herbicide 125 μM
  herbicidal injury rating: 4
Arabidopsis thaliana; herbicide 250 μM
  herbicidal injury rating: 5
Arabidopsis thaliana; herbicide 500 μM
  herbicidal injury rating: 6
Arabidopsis thaliana; herbicide 1000 μM
  herbicidal injury rating: 8

## Phosphonic acid, {4-[(o-hydroxyphenyl)thio]butyl}-,aryl-butyrate (ester)
Arabidopsis TS enzyme
  TSα activity, % of control: 2.1 % of control
  TSα activity, relative Vmax: 0.133 mOD/min
Arabidopsis thaliana; herbicide 7.8 mM + 100 μM Trp
  herbicidal rating: 1
Arabidopsis thaliana; herbicide 7.8 mM, no Trp
  herbicidal rating: 5
Arabidopsis thaliana; herbicide 16 mM + 100 μM Trp
  herbicidal rating: 1
Arabidopsis thaliana; herbicide 16 mM, no Trp
  herbicidal rating: 6
Arabidopsis thaliana; herbicide 31 mM + 100 μM Trp
  herbicidal rating: 1
Arabidopsis thaliana; herbicide 31 mM, no Trp
  herbicidal rating: 6
Arabidopsis thaliana; herbicide 63 mM + 100 μM Trp
  herbicidal rating: 3
Arabidopsis thaliana; herbicide 63 mM, no Trp
  herbicidal rating: 7
Arabidopsis thaliana; herbicide 125 mM + 100 μM Trp
  herbicidal rating: 5
Arabidopsis thaliana; herbicide 125 mM, no Trp
  herbicidal rating: 7
Arabidopsis thaliana; herbicide 250 mM + 100 μM Trp
  herbicidal rating: 5
Arabidopsis thaliana; herbicide 250 mM, no Trp
  herbicidal rating: 7
Arabidopsis thaliana; herbicide 500 mM + 100 μM Trp
  herbicidal rating: 3
Arabidopsis thaliana; herbicide 500 mM, no Trp
  herbicidal rating: 7
Arabidopsis thaliana; herbicide 1000 mM + 100 μM Trp
  herbicidal rating: 3
Arabidopsis thaliana; herbicide 1000 mM, no Trp
  herbicidal rating: 7

## Nc1ccc(Cl)cc1SCCCCP(=O)(O)O [Phosphonic acid, {4-[(2-amino-5-chlorophenyl)thio]butyl}-]
Arabidopsis thaliana; herbicide 7.8 μM
  herbicidal injury rating: 0
Arabidopsis thaliana; herbicide 16 μM
  herbicidal injury rating: 1
Arabidopsis thaliana; herbicide 31 μM
  herbicidal injury rating: 1
Arabidopsis thaliana; herbicide 63 μM
  herbicidal injury rating: 1
Arabidopsis thaliana; herbicide 125 μM
  herbicidal injury rating: 3
Arabidopsis thaliana; herbicide 250 μM
  herbicidal injury rating: 3
Arabidopsis thaliana; herbicide 500 μM
  herbicidal injury rating: 3
Arabidopsis thaliana; herbicide 1000 μM
  herbicidal injury rating: 3

## Nc1ccc(Br)cc1SCCCCP(=O)(O)O [Phosphonic acid, {4-[2-amino-5-bromophenyl)thio]butyl}-]
Arabidopsis thaliana; herbicide 7.8 μM
  herbicidal injury rating: 1
Arabidopsis thaliana; herbicide 16 μM
  herbicidal injury rating: 1
Arabidopsis thaliana; herbicide 31 μM
  herbicidal injury rating: 2
Arabidopsis thaliana; herbicide 63 μM
  herbicidal injury rating: 3
Arabidopsis thaliana; herbicide 125 μM
  herbicidal injury rating: 3
Arabidopsis thaliana; herbicide 250 μM
  herbicidal injury rating: 4
Arabidopsis thaliana; herbicide 500 μM
  herbicidal injury rating: 4
Arabidopsis thaliana; herbicide 1000 μM
  herbicidal injury rating: 4
[1]; TS inhibition I50, TSα reaction, Salmonella holoenzyme, 30 min at 37° C., 100 μM IGP
  IC50: 70 nM
[1]; inhibitor 30 nM
  Enzyme activity, % of control: 70.5 % of control
[1]; inhibitor 100 nM
  Enzyme activity, % of control: 38.5 % of control
[1]; inhibitor 300 nM
  Enzyme activity, % of control: 24.7 % of control
[1]; inhibitor 1000 nM
  Enzyme activity, % of control: 8.7 % of control
